# Laboratory results as given in patent publication US20240051946A1, “TARGETED PROTEIN DEGRADATION OF PARP14 FOR USE IN THERAPY” (Ribon Therapeutics, Inc., priority 2022, published 2024).
# Target: T1, catalytic domain of human PARP14 (residues 1611 to 1801) with NanoLuc tag (Homo sapiens, UniProt Q460N5)
# T1 construct: expressed in transfected cells; host or cells: HEK-293T cells (ATCC), plasmid pRTX240 in pcDNA3.1(-)
# T1 sequence (Q460N5 1611-1801): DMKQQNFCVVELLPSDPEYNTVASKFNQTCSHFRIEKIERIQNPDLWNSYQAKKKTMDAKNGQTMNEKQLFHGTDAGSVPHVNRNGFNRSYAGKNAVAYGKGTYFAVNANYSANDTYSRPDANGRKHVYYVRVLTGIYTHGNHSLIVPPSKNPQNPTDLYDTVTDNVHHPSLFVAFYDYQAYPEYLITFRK
# Test: NanoLuc assay for the degradation of PARP14
# Assay type: cell-based
# Settings: Assay A; NanoLuc-PARP14 overexpressed in HEK-293T cells; 2 hours at 37 degrees; luminescence
# Description: The catalytic domain of human PARP14 (residues 1611 to 1801, GenBank Accession No. NM_017554) was inserted into the pcDNA3.1(−) vector. The insert also contained a NanoLuc tag on the N terminus of the PARP14 protein.
# Degradation of PARP14 protein was assessed using measurement of the NanoLuc tag as proxy for the PARP14 protein. PARP14 with NanoLuc tag was overexpressed in […] cells (ATCC) using the plasmid described in Table 1. Plasmid DNA was diluted in empty vector DNA then added to 1.163 mL of phenol red free OptiMEM (Thermo Fisher). Plasmid DNA concentrations used in each assay described in Table 1. The plasmid DNA was mixed with 78.5 μL of Fugene HD (Promega) and allowed to incubate 5 minutes.
# Next, 1.125 mL were added to 10 million 293T cells in DMEM (Thermo Fisher) supplemented with 10% FBS (VWR) and 1× Glutamax (Gibco). The transfection was incubated for 24 hrs at 37 degrees in an incubator supplemented with 5% CO2. The cells were then trypsinized and brought up in phenol red free OptiMEM media. Transfected HEK-293T cells were diluted to […] and then added to assay plate (Corning 3574) using a Multidrop (Thermo Fisher) to add 40 μL per well of the 384 well plate, resulting in 5,000 cells per well. 40 nL of a dose response curve diluted in DMSO of each test compound was added to the cell plate using a Mosquito (TTP Labtech) and the plate was incubated at 37 degrees for 2 hours. Assay plate was brought to room temperature then 20 μL per well of NanoGlo (Promega) was added to the plate. Luminescence was measured on an Envision (Perkin Elmer).
# The average DMSO was calculated from 32 wells containing 0.1% DMSO only in columns 12 and 24 of the assay plate. The % of DMSO values were calculated as described below: […]
# The % of DMSO values were plotted as a function of compound concentration and the following 4-parameter fit was applied to derive the DC50 values:
# where top, bottom, and Hill Coefficient are allowed to float. Y is the % of DMSO and X is the compound concentration.
# DC50 data for the Example compounds is provided below in Table 2 (“+” is <0.1 μM; “++” is ≥0.1 μM and <1 μM; and “+++” is ≥1 μM).
row,Structure (SMILES),DC50
1,"CC(=O)N1CCC(COc2cc(F)c3c(=O)[nH]c(CSC4CCN(CC(=O)N5CCC(c6ccc(N7CCN(C8CCC(=O)NC8=O)C7=O)cc6)CC5)CC4)nc3c2)CC1 (stereo not shown) [Example 18, 3-(3-(4-(1-(2-(4-(((7-((1-acetylpiperidin-4-yl)methoxy)-5-fluoro-4-oxo-3,4-dihydroquinazolin-2-yl)methyl)thio)piperidin-1-yl)acetyl)piperidin-4-yl)phenyl)-2-oxoimidazolidin-1-yl)piperidine-2,6-dione]",< 100 nM
2,"CC(=O)N1CCC(COc2cc(F)c3c(=O)[nH]c(CSC4CCN(CC(=O)N5CCC(CN6CCN(c7cccc8c7C(=O)N(C7CCC(=O)NC7=O)C8=O)CC6)CC5)CC4)nc3c2)CC1 (stereo not shown) [Example 19, 4-(4-((1-(2-(4-(((7-((1-acetylpiperidin-4-yl)methoxy)-5-fluoro-4-oxo-3,4-dihydroquinazolin-2-yl)methyl)thio)piperidin-1-yl)acetyl)piperidin-4-yl)methyl)piperazin-1-yl)-2-(2,6-dioxopiperidin-3-yl)isoindoline-1,3-dione]",< 100 nM
3,"O=C1CCN(c2ccc(C3CCN(CC4CCN(C(=O)CN5CCC(SCc6nc7cc(OCC8CCOCC8)cc(F)c7c(=O)[nH]6)CC5)CC4)CC3)cc2)C(=O)N1 [Example 20, 1-(4-(1-((1-(2-(4-(((5-fluoro-4-oxo-7-((tetrahydro-2H-pyran-4-yl)methoxy)-3,4-dihydroquinazolin-2-yl)methyl)thio)piperidin-1-yl)acetyl)piperidin-4-yl)methyl)piperidin-4-yl)phenyl)dihydropyrimidine-2,4(1H,3H)-dione]",< 100 nM
4,"CC(=O)N1CCC(COc2cc(F)c3c(=O)[nH]c(CSC4CCN(C(=O)CNc5cccc6c5C(=O)N(C5CCC(=O)NC5=O)C6=O)CC4)nc3c2)CC1 (stereo not shown) [Example 21, 4-((2-(4-(((7-((1-acetylpiperidin-4-yl)methoxy)-5-fluoro-4-oxo-3,4-dihydroquinazolin-2-yl)methyl)thio)piperidin-1-yl)-2-oxoethyl)amino)-2-(2,6-dioxopiperidin-3-yl)isoindoline-1,3-dione]",< 100 nM
5,"CC(=O)N1CCC(COc2cc(F)c3c(=O)[nH]c(CSC4CCN(C(=O)C5CCN(CC6CCN(c7cccc8c7C(=O)N(C7CCC(=O)NC7=O)C8=O)CC6)CC5)CC4)nc3c2)CC1 (stereo not shown) [Example 22, 4-(4-((4-(4-(((7-((1-acetylpiperidin-4-yl)methoxy)-5-fluoro-4-oxo-3,4-dihydroquinazolin-2-yl)methyl)thio)piperidine-1-carbonyl)piperidin-1-yl)methyl)piperidin-1-yl)-2-(2,6-dioxopiperidin-3-yl)isoindoline-1,3-dione]",< 100 nM
6,"O=C1CCC(N2C(=O)c3cccc(N4CCC(CN5CCC(C(=O)N6CCC(SCc7nc8cc(NC9CCCC9)cc(F)c8c(=O)[nH]7)CC6)CC5)CC4)c3C2=O)C(=O)N1 (stereo not shown) [Example 23, 4-(4-((4-(4-(((7-(cyclopentylamino)-5-fluoro-4-oxo-3,4-dihydroquinazolin-2-yl)methyl)thio)piperidine-1-carbonyl)piperidin-1-yl)methyl)piperidin-1-yl)-2-(2,6-dioxopiperidin-3-yl)isoindoline-1,3-dione]",< 100 nM
7,"CC(=O)N1CCC(COc2cc(F)c3c(=O)[nH]c(CSC4CCN(C(=O)CNc5ccc6c(c5)C(=O)N(C5CCC(=O)NC5=O)C6=O)CC4)nc3c2)CC1 (stereo not shown) [Example 24, 5-((2-(4-(((7-((1-acetylpiperidin-4-yl)methoxy)-5-fluoro-4-oxo-3,4-dihydroquinazolin-2-yl)methyl)thio)piperidin-1-yl)-2-oxoethyl)amino)-2-(2,6-dioxopiperidin-3-yl)isoindoline-1,3-dione]",< 100 nM
8,"CC(=O)N1CCC(COc2cc(F)c3c(=O)[nH]c(CSC4CCN(C(=O)c5ccc(NC6CCC(=O)NC6=O)cc5)CC4)nc3c2)CC1 (stereo not shown) [Example 25, 3-((4-(4-(((7-((1-acetylpiperidin-4-yl)methoxy)-5-fluoro-4-oxo-3,4-dihydroquinazolin-2-yl)methyl)thio)piperidine-1-carbonyl)phenyl)amino)piperidine-2,6-dione]",< 100 nM
9,"CC(=O)N1CCC(COc2cc(F)c3c(=O)[nH]c(CCC4CCN(C(=O)C5CCN(CC6CCN(c7cccc8c7C(=O)N(C7CCC(=O)NC7=O)C8=O)CC6)CC5)CC4)nc3c2)CC1 (stereo not shown) [Example 26, 4-(4-((4-(4-(2-(7-((1-acetylpiperidin-4-yl)methoxy)-5-fluoro-4-oxo-3,4-dihydroquinazolin-2-yl)ethyl)piperidine-1-carbonyl)piperidin-1-yl)methyl)piperidin-1-yl)-2-(2,6-dioxopiperidin-3-yl)isoindoline-1,3-dione]",< 100 nM
10,"CC(=O)N1CCC(COc2cc(F)c3c(=O)[nH]c(CCC4CCN(CC(=O)N5CCC(CN6CCN(c7cccc8c7C(=O)N(C7CCC(=O)NC7=O)C8=O)CC6)CC5)CC4)nc3c2)CC1 (stereo not shown) [Example 27, 4-(4-((1-(2-(4-(2-(7-((1-acetylpiperidin-4-yl)methoxy)-5-fluoro-4-oxo-3,4-dihydroquinazolin-2-yl)ethyl)piperidin-1-yl)acetyl)piperidin-4-yl)methyl)piperazin-1-yl)-2-(2,6-dioxopiperidin-3-yl)isoindoline-1,3-dione]",< 100 nM
11,"CC(=O)N1CCC(COc2cc(F)c3c(=O)[nH]c(CSC4CCN(CC(=O)N5CCC(CN6CCN(c7ccc8c(c7)C(=O)N(C7CCC(=O)NC7=O)C8=O)CC6)CC5)CC4)nc3c2)CC1 (stereo not shown) [Example 28, 5-(4-((1-(2-(4-(((7-((1-acetylpiperidin-4-yl)methoxy)-5-fluoro-4-oxo-3,4-dihydroquinazolin-2-yl)methyl)thio)piperidin-1-yl)acetyl)piperidin-4-yl)methyl)piperazin-1-yl)-2-(2,6-dioxopiperidin-3-yl)isoindoline-1,3-dione]",< 100 nM
12,"O=C1CCC(N2C(=O)c3ccc(N4CCN(CC5CCN(C(=O)CN6CCC(SCc7nc8cc(NC9CCCC9)cc(F)c8c(=O)[nH]7)CC6)CC5)CC4)cc3C2=O)C(=O)N1 (stereo not shown) [Example 29, 5-(4-((1-(2-(4-(((7-(cyclopentylamino)-5-fluoro-4-oxo-3,4-dihydroquinazolin-2-yl)methyl)thio)piperidin-1-yl)acetyl)piperidin-4-yl)methyl)piperazin-1-yl)-2-(2,6-dioxopiperidin-3-yl)isoindoline-1,3-dione]",< 100 nM
13,"CC(=O)N1CCC(COc2cc(F)c3c(=O)[nH]c(CSC4CCN(c5ccc6c(c5)C(=O)N(C5CCC(=O)NC5=O)C6=O)CC4)nc3c2)CC1 (stereo not shown) [Example 30, 5-(4-(((7-((1-acetylpiperidin-4-yl)methoxy)-5-fluoro-4-oxo-3,4-dihydroquinazolin-2-yl)methyl)thio)piperidin-1-yl)-2-(2,6-dioxopiperidin-3-yl)isoindoline-1,3-dione]",< 100 nM
14,"CC(=O)N1CCC(COc2cc(F)c3c(=O)[nH]c(CSC4CCN(CC(=O)Nc5cccc6c5C(=O)N(C5CCC(=O)NC5=O)C6=O)CC4)nc3c2)CC1 (stereo not shown) [Example 31, 2-(4-(((7-((1-acetylpiperidin-4-yl)methoxy)-5-fluoro-4-oxo-3,4-dihydroquinazolin-2-yl)methyl)thio)piperidin-1-yl)-N-(2-(2,6-dioxopiperidin-3-yl)-1,3-dioxoisoindolin-4-yl)acetamide]",100 to 1000 nM
15,"CC(=O)N1CCC(COc2cc(F)c3c(=O)[nH]c(CSC4CCN(CC(=O)Nc5ccc6c(c5)C(=O)N(C5CCC(=O)NC5=O)C6=O)CC4)nc3c2)CC1 (stereo not shown) [Example 32, 2-(4-(((7-((1-acetylpiperidin-4-yl)methoxy)-5-fluoro-4-oxo-3,4-dihydroquinazolin-2-yl)methyl)thio)piperidin-1-yl)-N-(2-(2,6-dioxopiperidin-3-yl)-1,3-dioxoisoindolin-5-yl)acetamide]",< 100 nM
16,"CC(=O)N1CCC(COc2cc(F)c3c(=O)[nH]c(CSC4CCN(CC5CCN(c6ccc7c(c6)C(=O)N(C6CCC(=O)NC6=O)C7=O)CC5)CC4)nc3c2)CC1 (stereo not shown) [Example 33, 5-(4-((4-(((7-((1-acetylpiperidin-4-yl)methoxy)-5-fluoro-4-oxo-3,4-dihydroquinazolin-2-yl)methyl)thio)piperidin-1-yl)methyl)piperidin-1-yl)-2-(2,6-dioxopiperidin-3-yl)isoindoline-1,3-dione]",< 100 nM
